These results are taken from patent EP0147851B1, “Water soluble forms of polyene antibiotics, and process for preparing them” (priority 1983, dated 1985).

Where two headings read alike, the source gives them in different places.

The conditions of data set [1]: cited from earlier work.
The nature of data set [2]: Dissolution of Nystatin complex and Nystatin base material in water at 37 °C. In kind it is physicochemical. The conditions noted are these: destilliertes Wasser, after the first 5 Minuten. The procedure:
Der auf die beschriebene Weise hergestellte Komplex zeigte bei den thermoanalytischen Untersuchungen im Vergleich zum Gemisch die gleichen Abweichungen wie der gemäß Beispiel 3 durch Lyophilisieren hergestellte Komplex. Die Löslichkeit von einer der Wirkstoffmenge von 10 mg/ml entsprechenden Menge Nystatin-γ-CD-Komplex und von Nystatingrundmaterial wurde in 15 ml destilliertem Wasser bei 37 °C untersucht. Die Lösungen wurden mit dem Magnetrührer bei einer Drehzahl von 150 min⁻¹ gerührt. Zu unterschiedlichen Zeitpunkten wurden Proben genommen, filtriert und spektrophotometrisch auf ihren Wirkstoffgehalt untersucht. Die Ergebnisse sind in der Tabelle 6 zusammengestellt.
Das Spektrum der von der wäßrigen Suspension des Nystatingrundmaterials genommenen Proben war nicht auswertbar. […] Zuerst deformierte sich das Maximum um 290 nm und verschwand dann ganz, und im Bereich geringerer Wellenlänge zeigten sich neue Maxima, was auf Schädigung des konjugierten Chromophorsystems schließen läßt.

Data set [3] has as its system aus menschlichem Blut hergestellten Suspensionen roter Blutkörperchen. An excerpt: Dyn. 6, 408-414 [1983]) untersucht. Die Ergebnisse werden in Form der zu 50 %iger Hämolyse gehörenden Konzentrationen (EH₅₀) angegeben. […] Auch die hämolytische Wirkung einer der im Komplex gebundenen γ-CD-Menge entsprechenden Menge γ-Cyclodextrin wurde untersucht.

For the compound `C[C@@H]1[C@H](O)[C@@H](C)/C=C/C=C/CC/C=C/C=C/C=C/C=C/C(O[C@H]2O[C@H](C)[C@@H](O)[C@H](N)[C@@H]2O)CC2O[C@](O)(CC(O)C(O)CCC(O)CC(O)CC(O)CC(=O)O[C@H]1C)CC(O)C2C(=O)O` (stereo partly drawn) [Nystatin], the Löslichkeit in data set [1] (70 %iges wäßriges Isopropanol) was 2,2 mg/ml; in data set [1] (75 %-iges wäßriges Äthanol), 4 mg/mL; in data set [1] (reines Isopropanol), 0,62 mg/ml; in data set [1] (reines Äthanol) it was 0,55 mg/ml. Moreover, in data set [1] (Methanol), the “maximale Löslichkeit” value is 9,2-11,2 mg/ml. In data set [1] (zusammen mit Polyvinylpyrrolidon ausgefällt (coprecipitate)), the “Löslichkeit, increase” value is given as 8-10 mal. In addition, the “Zersetzung in aqueous suspension (UV spectrum)” value in data set [2] was “fortschreitende Zersetzung”. The Hämolyse in data set [3] (70 µg/ml Nystatin) came to 70%. Besides, in data set [3] (complexes berechnet als Wirkstoff), the “EH₅₀ (concentration for 50 % haemolysis)” value worked out at 57 µg/mL.
